The source of these data is US11254663B2 (BRISTOL-MYERS SQUIBB COMPANY, priority 2019, dated 2022).

For one test, the target named is FXR (Homo sapiens (Human), UniProt Q96RI1). Nature of the test: transient human FXR/Gal4-luciferase reporter assay. Type of test: cell-based.
FXR, sequence (Q96RI1 262-486): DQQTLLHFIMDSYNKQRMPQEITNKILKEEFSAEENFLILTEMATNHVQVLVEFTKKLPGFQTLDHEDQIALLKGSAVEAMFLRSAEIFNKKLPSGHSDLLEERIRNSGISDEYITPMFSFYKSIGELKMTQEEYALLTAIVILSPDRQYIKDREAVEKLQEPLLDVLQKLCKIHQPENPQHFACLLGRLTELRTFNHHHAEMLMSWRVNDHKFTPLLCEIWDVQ
Details: not given
The gist of the method: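 HEK293 cells stably carrying a 5×Gal4 response element–firefly luciferase reporter were transiently transfected overnight with a Gal4 DBD–human FXR LBD fusion plasmid. Compound was added in DMSO and cells were incubated overnight at 37 °C, 5% CO2. Activity was read as Steady-Glo luminescence.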
A general note: In a reporter assay the amount or activity of a reporter protein is the signal.
For `Cc1nc2ccc(-c3cncc(N(CC45CCC(c6noc(C(C)(C)C)n6)(CC4)CC5)C(=O)C45CC(F)(C4)C5)c3)cc2s1` [Example 484, N-((4-(5-(tert-butyl)-1,2,4-oxadiazol-3-yl)bicyclo[2.2.2]octan-1-yl)methyl)-3-fluoro-N-(5-(2-methylbenzo[d]thiazol-6-yl)pyridin-3-yl)bicyclo[1.1.1]pentane-1-carboxamide], the response was half-maximal at 0.344 µM (EC50).

Consider `CC(C)(O)c1ccc(-c2cccc(N(CC34CCC(c5noc(C(C)(C)F)n5)(CC3)CC4)C(=O)NCC3(CO)CCOCC3)c2)cc1` [Example 647, 1-((4-(5-(2-fluoropropan-2-yl)-1,2,4-oxadiazol-3-yl)bicyclo[2.2.2]octan-1-yl)methyl)-3-((4-(hydroxymethyl)tetrahydro-2H-pyran-4-yl)methyl)-1-(4′-(2-hydroxypropan-2-yl)-[1,1′-biphenyl]-3-yl)urea], for which the response was half-maximal at 0.581 µM (EC50).

For `CCOc1ncc(-c2cccc(N(CC34CCC(c5noc(C6(C)COC6)n5)(CC3)CC4)C(=O)[C@H]3C[C@](O)(C(F)(F)F)C3)c2)cn1` [Example 520, (1S,3S)—N-(3-(2-ethoxypyrimidin-5-yl)phenyl)-3-hydroxy-N-((4-(5-(3-methyloxetan-3-yl)-1,2,4-oxadiazol-3-yl)bicyclo[2.2.2]octan-1-yl)methyl)-3-(trifluoromethyl)cyclobutane-1-carboxamide], the EC50 (as a rule, the midpoint of the concentration-response curve) turned out to be 0.449 µM.

Staying with this test, now noted: Gal4-hFXR fusion construct, HEK293 reporter cells; response relative to 8 μM GW-4064.
Regarding `CC(C)(O)c1ccc(-c2cccc(N(CC34CCC(c5noc(C(C)(C)F)n5)(CC3)CC4)C(=O)[C@H]3C[C@](O)(C(F)(F)F)C3)c2)nn1` [Example 593, (cis)-N-((4-(5-(2-fluoropropan-2-yl)-1,2,4-oxadiazol-3-yl)bicyclo[2.2.2]octan-1-yl)methyl)-3-hydroxy-N-(3-(6-(2-hydroxypropan-2-yl)pyridazin-3-yl)phenyl)-3-(trifluoromethyl)cyclobutane-1-carboxamide], the EC50 is 0.566 µM. This lies in the sub-micromolar range.

In turn, `CS(=O)(=O)Nc1ccc(-c2cccc(N(CC34CCC(c5nnc(C6CC6)o5)(CC3)CC4)C(=O)C34CC(F)(C3)C4)c2)cc1` [Example 344, N-((4-(5-cyclopropyl-1,3,4-oxadiazol-2-yl)bicyclo[2.2.2]octan-1-yl)methyl)-3-fluoro-N-(4′-(methylsulfonamido)-[1,1′-biphenyl]-3-yl)bicyclo[1.1.1]pentane-1-carboxamide] returned an EC50 of 0.293 µM. This EC50 lies about 1.9-fold lower than the previous one.

In turn, `CC(C)(C)c1nc(C23CCC(CN(c4cccc(-c5ccc(NS(C)(=O)=O)cc5)c4)C(=O)[C@H]4C[C@@](C)(O)C4)(CC2)CC3)no1` [Example 512, (cis)-N-((4-(5-(tert-butyl)-1,2,4-oxadiazol-3-yl)bicyclo[2.2.2]octan-1-yl)methyl)-3-hydroxy-3-methyl-N-(4′-(methylsulfonamido)-[1,1′-biphenyl]-3-yl)cyclobutane-1-carboxamide] gave an EC50 of 0.909 µM.

With `COc1cc(-c2cccc(N(CC34CCC(c5nc(C6CC6)no5)(CC3)CC4)C(=O)C34CC(F)(C3)C4)c2)ccc1F` [Example 260, N-((4-(3-cyclopropyl-1,2,4-oxadiazol-5-yl)bicyclo[2.2.2]octan-1-yl)methyl)-3-fluoro-N-(4′-fluoro-3′-methoxy-[1,1′-biphenyl]-3-yl)bicyclo[1.1.1]pentane-1-carboxamide], it took 0.693 µM to reach a half-maximal effect (EC50). The EC50 values of the last two compounds are within 1.5-fold of each other.

Take `CCOc1ccc(-c2cccc(N(CC34CCC(c5noc(C(C)(F)F)n5)(CC3)CC4)C(=O)C34CC(F)(C3)C4)c2)cc1` [Example 527, N-((4-(5-(1,1-difluoroethyl)-1,2,4-oxadiazol-3-yl)bicyclo[2.2.2]octan-1-yl)methyl)-N-(4′-ethoxy-[1,1′-biphenyl]-3-yl)-3-fluorobicyclo[1.1.1]pentane-1-carboxamide]: the response was half-maximal at 0.103 µM (EC50).
